From paper PMC4302236, “Functional profile of a novel modulator of serotonin, dopamine, and glutamate neurotransmission” (Psychopharmacology, 2014)
Like-named read-outs stand apart in the source and are kept apart here.

Experiments:
[1] = test system: striatal dopamine metabolism; experiment: Striatal dopamine metabolism (HPLC-EC of DA, DOPAC, HVA); type: in vivo, mice; details: for DOPAC/DA, chronic (21 day) dosing, mean / HVA/DA, chronic (21 day) dosing, mean: striatum 2 h after last dose; for DOPAC/DA, acute (2 h) dosing, mean / HVA/DA, acute (2 h) dosing, mean: striatum 2 h after dose
Description: Measurements of tissue dopamine levels were performed at CDC-NIOSH. […] Striatum was rapidly dissected from each mouse brain, weighed, and placed into Eppendorf tubes that were frozen in liquid nitrogen and stored at -80 °C. […] Tissues were homogenized in 100 μl of ice-cold 0.2 M perchloric acid containing 1 μM dihydroxybenzylamine (DHBA) as an internal standard and centrifuged at 10,000×g for 10 min at 4 °C. The supernatant was filtered through a 0.2 μm nitrocellulose membrane, and an aliquot (10 μl) was injected from a temperature-controlled (4 °C) automatic sample injector (Waters 717plus Autosampler) connected to a Waters 515 HPLC pump. Catecholamines were separated on a C18 reverse-phase column ([…]; Waters […] 25 cm×4.6 mm; 5 μm), electrochemically detected (Waters 464 Pulsed Electrochemical Detector; range 10 nA, potential +0.7 V), and analyzed using Millennium software. […] A flow rate of 1 ml/min was used. […] The recovery of each analyte was adjusted with respect to the internal standard and quantified from a standard curve. The levels of dopamine and its metabolites, DOPAC and HVA, were calculated from the AUC values for each (based on microgram per gram (μg/g) tissue wet weight) and expressed as a percent of the saline control.

[2] = test system: phospho-serine (S) 9 GSK-3β; details: mouse, in vivo; for Phospho-S9 GSK-3β, PFC / Phospho-S9 GSK-3β, accumbens / Phospho-S9 GSK-3β, striatum: po
Description: Each brain was rapidly removed from the skull. Nucleus accumbens, striatum, and prefrontal cortex were dissected free-hand, frozen in liquid nitrogen, and stored at −80 °C until analyzed for phosphoprotein levels. […] Levels of phospho-GSK-3β were normalized for total levels of GSK-3β and expressed as a percent of phosphoprotein levels in the vehicle-injected controls.

Adrenergic, 1β = test system: T1, Adrenergic, 1β; experiment: NovaScreen broad selectivity panel at 100 nM, Adrenergic 1β; details: average of replicate tubes, read-out: % Inhibition of binding at 100 nM concentration, Adrenergic 1β
T1 construct: tissue NovaScreen/Caliper/Perkin-Elmer; host or cells: rat liver (inferred)
T1 sequence (P15823 whole entry): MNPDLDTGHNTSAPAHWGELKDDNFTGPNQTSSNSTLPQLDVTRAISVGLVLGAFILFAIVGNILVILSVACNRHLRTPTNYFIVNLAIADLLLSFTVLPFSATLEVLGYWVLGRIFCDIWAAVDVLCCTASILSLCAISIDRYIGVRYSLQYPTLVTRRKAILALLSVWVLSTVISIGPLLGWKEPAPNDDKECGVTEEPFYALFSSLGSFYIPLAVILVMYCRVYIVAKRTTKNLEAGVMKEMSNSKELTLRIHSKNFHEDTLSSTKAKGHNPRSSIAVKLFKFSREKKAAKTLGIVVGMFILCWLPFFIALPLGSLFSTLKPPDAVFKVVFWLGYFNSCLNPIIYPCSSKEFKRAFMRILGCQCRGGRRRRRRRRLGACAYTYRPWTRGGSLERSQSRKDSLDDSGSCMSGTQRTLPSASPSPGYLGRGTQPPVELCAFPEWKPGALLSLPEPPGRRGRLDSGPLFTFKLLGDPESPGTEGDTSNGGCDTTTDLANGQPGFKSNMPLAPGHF

5-HT2B receptors = 5-HT2B receptors (Homo sapiens, UniProt P41595); experiment: Binding to 5-HT2B receptors
Sequence of 5-HT2B receptors (P41595 whole entry): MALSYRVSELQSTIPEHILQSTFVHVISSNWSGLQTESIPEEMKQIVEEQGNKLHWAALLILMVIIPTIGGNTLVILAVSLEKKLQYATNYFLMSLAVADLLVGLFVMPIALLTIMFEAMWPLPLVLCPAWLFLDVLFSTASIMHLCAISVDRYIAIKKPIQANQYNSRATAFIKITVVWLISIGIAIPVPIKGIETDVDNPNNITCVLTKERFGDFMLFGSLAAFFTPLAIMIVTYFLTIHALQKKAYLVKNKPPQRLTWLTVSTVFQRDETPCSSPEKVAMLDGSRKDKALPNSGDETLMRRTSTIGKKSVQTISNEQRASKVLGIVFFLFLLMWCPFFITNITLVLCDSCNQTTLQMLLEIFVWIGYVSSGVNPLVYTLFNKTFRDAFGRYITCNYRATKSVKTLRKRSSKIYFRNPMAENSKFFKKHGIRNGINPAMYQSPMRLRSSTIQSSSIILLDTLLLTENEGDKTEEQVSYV

DOI-induced headtwitch = experiment: Inhibition of DOI-induced headtwitch (in vivo 5-HT2A antagonism); details: mice, p.o., 30 min prior to DOI […] i.p.
Description: Inhibition of DOI-induced headtwitch was measured as a functional assay for the in vivo potency of the compound as an antagonist at 5-HT2A receptors. […] Headtwitches were then counted for 5 min, starting 10 min after DOI injection. An ID50 for inhibition of DOI-induced headtwitch was calculated using a four-parameter logistical fit (Excel Fit software, IDBS).

social defeat model = experiment: Social interaction behavior after repeated social defeat; type: in vivo; details: mice, 1 mg/kg i.p. once daily 28 days after 10 days defeat; 150 s test
Description: Mice were tested for social isolation behavior after repeated exposure (for 10 days) to an aggressive resident mouse in the social defeat paradigm as described by [Berton et al. (2006)]. […] On the day after the last drug or vehicle treatment, the mice were placed in an open field in the presence of a resident mouse (within a smaller cage) and the animal’s behavior recorded by videotape for 150 s. Videotracking software (Noldus, Netherlands) was used to calculate the total time each mouse spent in specified open-field quadrants, defined schematically in Fig. 8. The total time (s) spent by mice representing each drug treatment group in the interaction zone (Fig. 8) in proximity to the resident mouse or, in the corner zones, at a distance from the resident mouse (Fig. 8) was expressed as a mean (±SEM).

forelimb catalepsy = details: mouse, in vivo
Description: Forelimb catalepsy was measured using the bar grip test. Mice were placed in a Lucite mouse cage outfitted with a 3-mm diameter wooden rod suspended 4 cm from the floor of the cage. During testing, the mouse was allowed to grip the bar firmly with hind legs placed firmly on the floor of the cage. The mouse was required to maintain this posture for at least 10 s for a valid test session. Catalepsy was then quantitated by recording the latency (in seconds) to step both front paws down to the floor of the cage up to a maximum time of 120 s. If the mouse stepped off the bar immediately (less than 10 s), another attempt was made up to a maximum of ten attempts. The longest duration of immobility was recorded if none of the ten attempts were beyond 10 s. Catalepsy was measured for each mouse at 2, 3, 4, and 6 h after drug administration. Mean forelimb catalepsy time (in seconds) was calculated across each group and time point. Data were analyzed using ANOVA with Newman–Keuls post hoc test.

extracellular dopamine = experiment: In vivo microdialysis of dopamine and DOPAC in striatum and prefrontal cortex; details: rats
Description: On the day of the experiment (24–48 h after surgery), the microdialysis probes of each animal were connected via the use of flexible PEEK tubing to a microperfusion pump (Harvard Apparatus, PHD 2000 Holliston, MA). Artificial CSF, composed of 147 mM NaCl, 3 mM KCl, 1.2 mM CaCl2, and 1.2 mM MgCl2 was used to perfuse the probes (1.5 μl/min) beginning at 75 min prior to drug treatment. Baseline dialysate collection was begun for all rats 60 min prior to drug administration (t=−60 min) such that a total of […] were collected prior to drug treatment (t=0). […] A control group of rats (N=9) received only the 0.5 % methylcellulose vehicle solution, delivered orally (p.o.). All drug solutions were delivered in a volume of 1 ml/kg of body weight. Every 20 min for the following 3 h, dialysate was collected from both brain regions of each rat. Dialysates were collected into mini-vials containing 7.5 μl of 0.02 M formic acid using an automated fraction collector Univentor 820, Malta. Tubes containing dialysate samples were then frozen at −80 °C until analyzed by HPLC for levels of dopamine and the dopamine metabolite, DOPAC. […] Coronal sections were prepared of each rat brain to verify the position of the dialysis collection probes. Dopamine and DOPAC concentrations were determined in each sample using HPLC separation and electrochemical detection. An aliquot (20 μl) of each dialysate sample was injected onto the HPLC column by means of a refrigerated microsampler system, consisting of a syringe pump (Gilson, model 402), a multi-column injector (Gilson, model 233 XL), and a temperature regulator (Gilson, model 832). The chromatographic separation was performed on a reverse-phase 150 ×2.1 mm (3 μm) C18 Thermo BDS Hypersil column (Keystone Scientific). […] The mobile phase was run at a flow rate of 0.35 ml/min using an HPLC pump (Shimadzu, model LC-10AD vp). Dopamine and DOPAC were electrochemically detected using a potentiostat (Antec Leyden, model Intro) fitted with a glassy carbon electrode set a +500 mV versus Ag/AgCl (Antec, Leyden). Data were analyzed using Chromatography Data System software (Shimadzu, Class-VP, Japan) using an external standard method to quantify concentrations of dopamine and DOPAC. […] Drug effects were expressed as percentages of basal level (mean±SEM) within the same subject. Statistical analysis was performed using Sigmastat for Windows (SPSS Corporation). Drug effects were compared with baseline and vehicle control using a two-way ANOVA for repeated measurements followed by the Newman–Keuls post hoc test. […] For all tests, the level of statistical significance was set at p<0.05.

[3] = test system: muscarinic cholinergic receptors; experiment: Binding to muscarinic cholinergic receptors
[4] = 1 mg/kg p.o. once daily 21 days
[5] = 3 mg/kg p.o. once daily 21 days
[6] = 10 mg/kg p.o. once daily 21 days

## CN1CCN2c3c(cccc31)[C@@H]1CN(CCCC(=O)c3ccc(F)cc3)CC[C@@H]12 [ITI-007, 1-(4-fluoro-phenyl)-4-((6bR,10aS)-3-methyl-2,3,6b,9,10,10a-hexahydro-1H,7H-pyrido[3′,4′:4,5]pyrrolo[1,2,3-de]quinoxalin-8-yl)-butan-1-one]
[1]; [4]
  DOPAC/DA, chronic (21 day) dosing, mean: 4.69
  HVA/DA, chronic (21 day) dosing, mean: 9.44
[1]; 1 mg/kg p.o. once
  DOPAC/DA, acute (2 h) dosing, mean: 4.98
  HVA/DA, acute (2 h) dosing, mean: 8.06
[1]; [5]
  DOPAC/DA, chronic (21 day) dosing, mean: 4.54
  HVA/DA, chronic (21 day) dosing, mean: 7.99
[1]; 3 mg/kg p.o. once
  DOPAC/DA, acute (2 h) dosing, mean: 4.57
  HVA/DA, acute (2 h) dosing, mean: 7.47
[1]; [6]
  DOPAC/DA, chronic (21 day) dosing, mean: 5.80
  HVA/DA, chronic (21 day) dosing, mean: 10.47
[1]; 10 mg/kg p.o. once
  DOPAC/DA, acute (2 h) dosing, mean: 6.02
  HVA/DA, acute (2 h) dosing, mean: 8.40
[2]
  Effect on S9 GSK-3β phosphorylation in striatum at any dose tested: no significant effect
[2]; 3 mg/kg
  Phospho-S9 GSK-3β, PFC: 103.4±3.1 % vehicle control
  Phospho-S9 GSK-3β, accumbens: 122.9±8.6 % vehicle control
  Phospho-S9 GSK-3β, striatum: 106.6±2.1 % vehicle control
[2]; 10 mg/kg
  Phospho-S9 GSK-3β, striatum: 98.2±5.1 % vehicle control
[2]; 30 mg/kg
  Phospho-S9 GSK-3β, PFC: 112.1±2.7 % vehicle control
  Phospho-S9 GSK-3β, accumbens: 105.5±2.2 % vehicle control
  Phospho-S9 GSK-3β, striatum: 108.0±2.9 % vehicle control
Adrenergic, 1β
  inhibition at 0.1 µM: 85.4%
5-HT2B receptors
  Binding to 5-HT2B receptors: did not significantly bind
DOI-induced headtwitch
  ID50, inhibition of DOI-induced headtwitch: 0.09 mg/kg
Social defeat model
  Time spent in interaction zone (social behavior) after chronic social defeat: no such reduction in social behavior
Forelimb catalepsy
  Cataleptogenic activity: no demonstrable cataleptogenic activity
Forelimb catalepsy; po, 30 mg/kg
  Forelimb catalepsy, bar grip test: statistically significant increase in forelimb catalepsy
Extracellular dopamine; 3 mg/kg p.o., p<0.05
  DA efflux in mPFC: significantly increased
Extracellular dopamine; 10 mg/kg p.o., trend toward an increase
  DA efflux in mPFC: not statistically significant
[3]
  Binding to muscarinic cholinergic receptors (e.g., M3 subclasses): no significant binding
